Results published in BindingDB's records for patent US20240336562 (Hangzhou Innogate Pharma, 2024).

Target: NACHT, LRR and PYD domains-containing protein 3 (Homo sapiens, UniProt Q96P20)
Test: Inhibitory Activity of NLRP3
Experimental: ELISA plate, and incubated at 4° C. overnight. Discard the liquid in the ELISA plate and wash it 4 times with eluent. Add 300 μL/well reagent diluent and incubate the ELISA plate at room temperature for 1.5 hours. Wash the plate with eluent for four times. Then 100 μL/well samples were added to ELISA plate coated with IL1β and incubated at room temperature for 2 h. Wash the plate with eluent for four times. Each well was added with 100 μL detection antibody and incubated at 37° C. for 2 h. Wash the plate with eluent for four times. Add 100 μL of HRP labeled secondary antibody to each well. Incubate at 37° C. for 1 hour. Wash the plate with eluent for four times. Add 100 μL of A+B substrate per well. Incubate at 37° C. for 30 minutes. Add 100 μL STOP solution per well. Gently shake the plate for a few seconds. Read the absorption value at 450 nm on the EnVision multifunction reader and calculate the Inhibitory rate according to the following formula: Inhibition %=(Ave_H-Sample)/(Ave_H-Ave_L). Among them, Ave_H represents the average value of DMSO well, Sample represents the average value of compound well, and Ave_L represents the average value of 10 μM positive control well. The log value of concentration was taken as the X-axis and the percentage inhibitory rate as the Y-axis. […]

Chain of NACHT, LRR and PYD domains-containing protein 3 (Q96P20 whole entry, the tested form may be a part): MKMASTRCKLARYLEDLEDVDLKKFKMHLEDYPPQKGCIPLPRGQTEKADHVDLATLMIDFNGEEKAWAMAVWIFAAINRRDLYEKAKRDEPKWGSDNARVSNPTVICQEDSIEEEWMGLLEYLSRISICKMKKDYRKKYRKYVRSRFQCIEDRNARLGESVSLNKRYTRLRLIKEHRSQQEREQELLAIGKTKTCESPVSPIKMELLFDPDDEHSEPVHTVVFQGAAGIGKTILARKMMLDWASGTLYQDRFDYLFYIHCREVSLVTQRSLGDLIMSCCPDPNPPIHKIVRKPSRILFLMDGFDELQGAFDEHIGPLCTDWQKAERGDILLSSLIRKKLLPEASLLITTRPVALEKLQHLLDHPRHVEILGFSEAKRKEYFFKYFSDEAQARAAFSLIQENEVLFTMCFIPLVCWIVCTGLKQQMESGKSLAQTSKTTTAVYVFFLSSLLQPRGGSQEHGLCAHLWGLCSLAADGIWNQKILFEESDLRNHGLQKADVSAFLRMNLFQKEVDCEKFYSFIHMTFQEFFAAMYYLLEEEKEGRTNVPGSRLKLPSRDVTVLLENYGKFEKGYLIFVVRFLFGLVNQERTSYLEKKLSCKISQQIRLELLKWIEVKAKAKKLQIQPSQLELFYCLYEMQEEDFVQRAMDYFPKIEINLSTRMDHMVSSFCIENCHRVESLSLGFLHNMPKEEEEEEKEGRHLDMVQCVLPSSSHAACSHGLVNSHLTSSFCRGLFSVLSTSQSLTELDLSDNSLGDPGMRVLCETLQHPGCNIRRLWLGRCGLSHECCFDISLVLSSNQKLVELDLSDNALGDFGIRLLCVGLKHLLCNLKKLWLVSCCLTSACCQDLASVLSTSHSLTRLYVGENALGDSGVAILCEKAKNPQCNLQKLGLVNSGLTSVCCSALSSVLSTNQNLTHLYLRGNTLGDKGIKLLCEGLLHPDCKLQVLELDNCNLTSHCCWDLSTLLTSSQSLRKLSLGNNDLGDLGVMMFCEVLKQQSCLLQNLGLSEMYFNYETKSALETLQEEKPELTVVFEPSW

COc1cc(-c2c(C)cc3c(c2NC(=O)NS(=O)(=O)c2ccn(C4CC(=C(F)F)C4)n2)CCC3)ccn1 (stereo unspecified) [US20240336562, Compound 22]
IC50: < 25 nM
